{"source": "patent US20140017187A1", "about": "“Use of 5-(7-methoxy-3,3-dimethyl-2,3-dihydro-1-benzoxepin-5-yl)-3-methyl-penta-2,4-dienoic acid as a cosmetic” (Merck Patent GmbH, priority 2008, published 2014)", "key": {"[1]": {"assay": "Skin sensitization test (in house data)"}, "PPARα": {"target": "T1, PPARα (Homo sapiens, UniProt Q07869)", "T1 construct": "expressed in transfected cells; host or cells: human SK-Hep1 cells", "T1 sequence (Q07869 1-468)": "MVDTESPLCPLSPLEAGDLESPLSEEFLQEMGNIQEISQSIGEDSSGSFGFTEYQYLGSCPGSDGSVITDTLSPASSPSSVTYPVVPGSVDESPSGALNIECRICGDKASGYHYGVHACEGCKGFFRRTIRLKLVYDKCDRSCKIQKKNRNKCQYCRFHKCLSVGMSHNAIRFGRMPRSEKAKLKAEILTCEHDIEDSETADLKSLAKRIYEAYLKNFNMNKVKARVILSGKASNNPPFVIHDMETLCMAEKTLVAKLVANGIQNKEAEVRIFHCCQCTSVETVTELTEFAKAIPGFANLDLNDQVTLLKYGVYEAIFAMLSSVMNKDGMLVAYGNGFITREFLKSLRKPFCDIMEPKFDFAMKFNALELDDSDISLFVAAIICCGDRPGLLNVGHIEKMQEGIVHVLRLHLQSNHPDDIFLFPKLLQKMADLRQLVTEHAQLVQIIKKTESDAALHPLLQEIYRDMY", "assay": "PPARα luciferase reporter gene activation in SK-Hep1 cells cotransfected with PPARα expression vector", "assay_type": "cell-based", "settings": "for Fold Activation PPAR alpha, MEAN: mean of the two experiments in triplicate; for Fold Activation PPAR alpha: single values of triplicates, two experiments, relative to control; for balance of stimulation of PPAR-alpha and -gamma receptors: both receptors activated in the same concentration range", "text": "(§1) Analysis of the activation of PPARα and PPARγ is based on the transfection of a DNA allowing the expression of a reporter gene (the gene of luciferase) under the control of the PPARs, either endogenous in the case of PPARγ or cotransfected in the case of PPARα. The reporter plasmid J3TkLuc comprises three copies of the response element for PPARs of the human apo A-II gene (Staels, B et al. (1995), J. Clin. Invest., 95, 705-712) which are cloned upstream of the promoter of the thymidine kinase gene of the herpes simplex virus in the plasmid pGL3. This reporter gene was obtained by subcloning, in the plasmid pGL3, the plasmid J3TkCAT described above (Fajas, L et al. (1997), J. Biol. Chem., 272, 18779-18789). […] These cells were inoculated at a density of 20,000 cells per well (96-well plates) and transfected with 150 ng of reporter DNA complexed with a mixture of lipids. In the case of the SK-Hep1 cells, an expression vector for PPARα, described by Sher, T. et al. (1993), Biochemistry, 32, 5598-5604, is cotransfected. After 5 hours, the cells are washed twice and incubated for 36 hours in the presence of the test compound in a fresh culture medium comprising 10% foetal calf serum. At the end of incubation, the cells are lysed and the luciferase activity is measured."}, "PPARγ": {"test_system": "PPARγ", "assay": "PPARγ luciferase reporter gene activation in CV1 cells expressing endogenous PPARγ", "assay_type": "cell-based, green monkey", "settings": "for Fold Activation PPAR gamma, MEAN: mean of the two experiments in triplicate; for Fold Activation PPAR gamma: single values of triplicates, two experiments, relative to control", "text": "as §1"}, "animal models": {"test_system": "animal models", "assay": "Toxicity studies in animal models (in house data)", "settings": "in vivo"}, "B16-V melanoma cells": {"test_system": "B16-V melanoma cells", "assay": "Inhibition of melanin synthesis in B16-V melanoma cells (alpha-MSH stimulated)", "assay_type": "cell-based", "settings": "72 h, alpha-MSH stimulation", "experimental": "DMSO is the solvent as negative and IBMX (3-Isobutyl-1-methylxantine) is our positive control. Kojic acid (KA) is the known reference ingredient for skin whitening.\nB16-V melanoma cells were incubated for 72 h with assay medium containing different amounts of test substances. The concentration depends on the results of the MTT-Assay. Only concentrations without effect on viability (after 24 h incubation) were used for further melanin evaluation. Every 24 hours medium was changed and replaced by fresh assay medium containing the compounds and alpha-MSH (stimulation of melanin synthesis). The cell number was determined and the cells got lysed using 1M NaOH. Afterwards the amount of melanin was measured at 405 nm with a microplatereader (Safire2™, Tecan). Different concentrations of synthetic melanin were used to produce a calibration curve. Melanin content was expressed as pg/cell."}, "[2]": {"assay": "Skin/eye irritation test (in house data)"}, "[3]": {"test_system": "subjects of skin type 3 or 4", "assay": "Double blind clinical trial of skin whitening activity on forearms, versus placebo formulation", "assay_type": "in vivo, human", "settings": "oil-in-water emulsion with 1.0% Compound vs placebo, forearm, twice a day, 4½ weeks", "experimental": "Skin whitening activity was evaluated in a double blind clinical trial. As study medication a oil-in-water emulsion formulation containing 1.0% of the Compound, in comparison with the same formulation containing no active ingredient (placebo) was used.\nThe study was executed with subjects of skin type 3 or 4, aged from 18 to 50 years, whereby the active formulation was applied on one forearm twice a day and the placebo formulation on the other forearm for 4½ weeks. Assessment of whitening efficacy was performed on both forearms at day 0, 14 and 28 by visual assessment (examination of pigmentation differences), colorimetric measurements (using Chroma-Meter CR 300, Minolta resulting in L* values, expressing the changes in brightness, and ITA° values Individual Typology Angle expressing the melanin index) as well as digital photographs."}}, "note": "Values joined by “and” are separate entries in the source; they are usually repeats but may differ in a detail not shown here. Identical values can stand only once.", "data": [{"smiles": "COc1ccc2c(c1)C(/C=C/C(C)=C/C(=O)O)=CC(C)(C)CO2", "note": "[Compound, 5-(7-methoxy-3,3-dimethyl-2,3-dihydro-1-benzoxepin-5-yl)-3-methyl-penta-2,4-dienoic acid]", "values": [{"measurement": "skin sensitization", "setting": "[1]", "result": "no skin sensitization"}, {"measurement": "Fold Activation PPAR alpha, MEAN", "setting": "PPARα; 0.3 μm", "result": 1.4, "unit": "fold"}, {"measurement": "Fold Activation PPAR alpha", "setting": "PPARα; 0.3 μm", "result": "0.7 fold and 0.8 fold and 0.6 fold and 0.5 fold"}, {"measurement": "Fold Activation PPAR alpha, MEAN", "setting": "PPARα; 1 μm", "result": 0.7, "unit": "fold"}, {"measurement": "Fold Activation PPAR alpha, MEAN", "setting": "PPARα; 3 μm", "result": 0.8, "unit": "fold"}, {"measurement": "Fold Activation PPAR alpha", "setting": "PPARα; 3 μm", "result": "0.6 fold and 0.7 fold and 1.0 fold and 1.1 fold and 0.8 fold"}, {"measurement": "Fold Activation PPAR alpha, MEAN", "setting": "PPARα; 10 μm", "result": 1.2, "unit": "fold"}, {"measurement": "Fold Activation PPAR alpha, MEAN", "setting": "PPARα; 30 μm", "result": 4.9, "unit": "fold"}, {"measurement": "Fold Activation PPAR alpha, MEAN", "setting": "PPARα; 50 μm", "result": 8.0, "unit": "fold"}, {"measurement": "Fold Activation PPAR alpha, MEAN", "setting": "PPARα; 100 μm", "result": 6.9, "unit": "fold"}, {"measurement": "balance of stimulation of PPAR-alpha and -gamma receptors", "setting": "PPARα", "result": "well-balanced stimulation"}, {"measurement": "balance of stimulation of PPAR-alpha and -gamma receptors", "setting": "PPARα; listed as EMD 336340", "result": "balanced activity"}, {"measurement": "Fold Activation PPAR gamma, MEAN", "setting": "PPARγ; 0.3 μm", "result": 0.9, "unit": "fold"}, {"measurement": "Fold Activation PPAR gamma, MEAN", "setting": "PPARγ; 1 μm", "result": 1.0, "unit": "fold"}, {"measurement": "Fold Activation PPAR gamma", "setting": "PPARγ; 1 μm", "result": "0.8 fold and 1.2 fold and 0.9 fold and 1.0 fold and 1.3 fold"}, {"measurement": "Fold Activation PPAR gamma, MEAN", "setting": "PPARγ; 3 μm", "result": 1.5, "unit": "fold"}, {"measurement": "Fold Activation PPAR gamma", "setting": "PPARγ; 3 μm", "result": "1.2 fold and 1.6 fold and 1.3 fold and 2.1 fold"}, {"measurement": "Fold Activation PPAR gamma, MEAN", "setting": "PPARγ; 10 μm", "result": 5.2, "unit": "fold"}, {"measurement": "Fold Activation PPAR gamma, MEAN", "setting": "PPARγ; 30 μm", "result": 14.4, "unit": "fold"}, {"measurement": "Fold Activation PPAR gamma, MEAN", "setting": "PPARγ; 50 μm", "result": 17.6, "unit": "fold"}, {"measurement": "Fold Activation PPAR gamma, MEAN", "setting": "PPARγ; 100 μm", "result": 15.2, "unit": "fold"}, {"measurement": "cell proliferation or apoptosis", "setting": "animal models", "result": "no indication"}, {"measurement": "melanin inhibiting activity (melanin content pg/cell, FIG. 1)", "setting": "B16-V melanoma cells", "result": "superb melanin inhibiting activity"}, {"measurement": "melanin inhibiting activity compared with kojic acid (FIG. 1)", "setting": "B16-V melanoma cells", "result": "significantly better than kojic acid"}, {"measurement": "skin/eye irritation", "setting": "[2]", "result": "no skin/eye irritation"}, {"measurement": "skin whitening activity", "setting": "[3]", "result": "extraordinary skin whitening activity"}]}]}
